This is an account of results in ChEMBL document CHEMBL4414619, “Protein Tyrosine Phosphatase 1B Inhibitory Iridoids from Psydrax subcordata” (J Nat Prod, 2019).

Usually IC50 stands for the midpoint of a concentration-inhibition curve. The term Ki denotes a dissociation constant, usually derived from enzyme kinetics or from competition with a known ligand.

In test [1] the target is T1, Tyrosine-protein phosphatase non-receptor type 1 (Homo sapiens, UniProt P18031).
T1 sequence (P18031 whole entry): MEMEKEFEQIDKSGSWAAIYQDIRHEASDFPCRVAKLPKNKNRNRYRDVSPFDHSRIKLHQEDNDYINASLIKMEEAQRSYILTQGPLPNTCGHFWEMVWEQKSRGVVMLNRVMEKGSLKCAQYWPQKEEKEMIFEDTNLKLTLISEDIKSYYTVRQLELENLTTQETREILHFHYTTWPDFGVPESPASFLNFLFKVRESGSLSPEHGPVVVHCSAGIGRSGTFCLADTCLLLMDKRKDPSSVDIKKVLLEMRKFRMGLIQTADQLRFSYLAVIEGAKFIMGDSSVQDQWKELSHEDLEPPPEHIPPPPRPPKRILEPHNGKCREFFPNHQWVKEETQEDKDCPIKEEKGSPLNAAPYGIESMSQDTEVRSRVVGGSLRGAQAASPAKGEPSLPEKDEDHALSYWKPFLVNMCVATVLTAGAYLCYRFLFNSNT
The test can be described thus: Inhibition of N-terminal GST tagged recombinant human PTP1B catalytic domain (1 to 321 residues) expressed in Escherichia coli using pNPP as substrate preincubated for 10 mins followed by substrate addition and measured every 5 mins for 30 mins.

The target in test [2] is T2, Tyrosine-protein phosphatase non-receptor type 1 (Homo sapiens) (UniProt P18031).
T2 sequence (whole entry): T1 sequence (P18031 whole entry)
The test can be described thus: Ratio of kinetic constant Kik to Kiv at N-terminal GST-tagged recombinant human PTP1B catalytic domain (1 to 321 residues) expressed in Escherichia coli using pNPP as substrate preincubated for 10 mins followed by incubation with substrate for 30 mins and measured every 5 mins for 30 mins by Lineweaver-burk plot analysis.

Test [3] has as its target T1, Tyrosine-protein phosphatase non-receptor type 1. The test can be described thus: Competitive inhibition of N-terminal GST-tagged recombinant human PTP1B catalytic domain (1 to 321 residues) expressed in Escherichia coli assessed as inhibitory constant using pNPP as substrate preincubated for 10 mins followed by incubation with substrate for 30 mins and measured every 5 mins for 30 mins by Lineweaver-burk plot based Dixon plot analysis.

Molecules are shown by their SMILES.

Turning to `CC1=C[C@@H](O)[C@@H]2[C@@H](CO)C(=O)O[C@]12CO`, in test [1], the IC50 was 43.6 µM. Same read-out and setting: then `CC1=C2C(=O)OCC[C@H]2[C@H](O)C1`, with more than 80 µM; and `CC1=C(CO)[C@@H](CCO)[C@H](O)C1`, with more than 80 µM; and `COC(=O)C1=C(C)C[C@@H](O)[C@@H]1[C@H](CO)C(=O)OC`, with more than 80 µM. With `CC1=C2COC(=O)[C@H](CO)[C@H]2[C@H](O)C1`, the IC50 in test [1] was found to be 9.8 µM. Also, in test [2], the Ratio is 6.86 to 37.6. The Ki in test [3] came to 4.13 µM. `COC(=O)[C@H]1COC(=O)C2=C(C)C[C@@H](O)[C@@H]21`: the IC50 in test [1] was more than 80 µM.

`COC(=O)[C@H](CO)[C@@H]1C(CO)=C(C)C[C@H]1O`: the IC50 in test [1] is more than 80 µM. In the case of `COC(=O)C1=C(C)C[C@@H](O)[C@@H]1CCO`, the IC50 in test [1] was more than 80 µM. In the case of `COC(=O)C1=CO[C@@]2(C)C[C@@H](O)[C@H]1[C@@H]2CO`, the IC50 in test [1] amounted to 22.2 µM. Turning to `CC1=C2COC(=O)[C@@H](CO)[C@H]2[C@H](O)C1`, the IC50 in test [1] turned out to be 8.9 µM. The Ratio in test [2] lay within 6.86 to 37.6. The Ki in test [3] came out at 2.57 µM. With `COC(=O)[C@@H](CO)[C@@H]1C(CO)=C(C)C[C@H]1O`, the half-maximal inhibitory concentration (IC50) in test [1] was more than 80 µM.
